Read-outs that look alike come from different tables or passages of the source. Marks after values point to notes of the source that are not given here.

A word on the IC50: it is the concentration needed to halve the response being measured. Read a low IC50 as greater potency.

For assay [1], the system named is guinea pigs. The assay can be described thus: Effect on the flow rate of urine in guinea pigs, single or combined use, Experimental Example 4. The assay is classed as in vivo, Hartley male guinea pigs. The note with it: guinea pig; for Improvement (%): 10 minutes after administration. The source says:
Effect on the flow rate of urine by single or combined use of Compounds of Reference Examples, distigmine, prazosin, and tamsulosin was examined using Hartley male guinea pigs. Four to six Hartley male guinea pigs weighing about 350 g (SLC) were employed in each treated group. Guinea pigs were anesthetized with urethane, and held, and the bladder was exposed. Two polyethylene tubes (PE-100) were inserted into the bladder. One of the tubes was used in infusion of physiological saline, and the other used for measurement of the internal pressure of the bladder. Saline was infused continuously at a flow rate of 0.3 mL/min. The infusion was stopped at the time when intermittent urination was confirmed at least 3 times, and the whole saline in bladder was removed. Again, infusion was started, and stopped at the time when a rise of the pressure in bladder was confirmed immediately before urination. Excreted urine was weighed on an electronic force balance (HX-400, A&D). Analogue data of the internal pressure of the bladder and urine weight were input in an AD converter (MP-30, Biopac Systems) and the digital signal was analyzed by means of purpose-made software (Student lab pro 2.1.5, Biopac Systems). Sampling interval of the date was fixed at 0.1 second, and the value of urine weight was differentiated to determine the flow rate of urine. In order to remove data noise of the excretion volume and flow rate of urine, the data was adapted to a lowcut filter at 0.5 Hz.
Measurement was made 2 times before administration of the test compound, and then the test compound was administered intravenously. Again, measurement was made 10 minutes after administration of the test compound.
The average measured value before administration of the test compounds was regarded as the value before administration, and the rate of change of the values from the ante-administration to the post-administration was calculated to compare between the groups by means of the Dunnet's test.

Assay [2] has as its target T1, acetylcholinesterase of human erythrocyte origin (Homo sapiens, UniProt P22303).
T1 construct: Acetylcholinesterase of human erythrocyte origin (Sigma Chemical Co.); purchased Sigma Chemical Co; host or cells: human erythrocytes (natural source)
The assay is described as follows: Measurement of acetylcholinesterase-inhibiting action (acetylthiocholine / Ellman method), Experimental Example 1. In kind it is biochemical. The settings on record: at least 3 experiments. On the procedure:
Acetylcholinesterase-inhibiting action of the compounds disclosed in Reference Examples was measured using acetylcholinesterase of human erythrocyte origin according to the acetylthiocholine method (Ellman method).
Acetylcholinesterase of human erythrocyte origin (Sigma Chemical Co.) was dissolved in distilled water at a concentration of 0.2 IU/mL to give an enzyme authentic sample. To a 96-well microplate was dispensed 20 μL of drug solution, 30 μL of 80 mM Tris-HCl (pH 7.4), 50 μL of enzyme authentic sample and 50 μL of 5 mM 5,5-dithio-bis(2-nitrobenzoic acid) (Sigma Chemical Co.), and the plate was shaken for 10 seconds. Then, 50 μL of acetylthiocholine iodide (Sigma Chemical Co.) was added, and the plate was again shaken. Immediately after shaking, increase of extinction at […] was measured at intervals of 30 seconds for 10 minutes. The enzyme activity was determined according to the following equation.
The experiment was repeated at least 3 times for each compound to obtain 50% inhibitory concentration (IC50). Moreover, in the same manner as mentioned above, acetylcholinesterase-inhibiting activity of distigmine was measured.
(DTNB colorimetry detects thiols as they appear.)

For another assay, the system named is urinary bladder. The assay can be described thus: Potentiation effect for rhythmic contraction of urinary bladder in guinea pig, Experimental Example 2. In kind it is in vivo, Hartley male guinea pigs. The note with it: Cavia porcellus, iv, read-out: AUC200 (mg/kg, i.v.). The method, then: Potentiation effect of the compounds disclosed in Reference Examples for rhythmic contraction of urinary bladder was examined using Hartley male guinea pigs. Hartley male guinea pigs (SLC) weighing about 300 g were anesthetized with urethane (1.2 g/kg, i.p.), held, and incised at the midline of abdomen to expose the bladder. The urethra was ligated, and a polyethylene tube (PE-50) was inserted into the bladder. The internal pressure of the bladder was measured with a blood pressure amplifier (Nippon Koden), and the data was collected on a personal computer through an A/D converter (MP-30, Biopac Systems). A proper amount of physiological saline was injected into the bladder through a cannula to induce rhythmic contraction of the to bladder.
The area (AUC) that is formed by a curve of the internal pressure of the bladder and a base line was calculated through analytical software (Studentlab pro 2.1.5, Biopac Systems) to evaluate the effect of the test compounds. The curve of the internal pressure is made based on the bladder contraction immediately before administration of the test compound and the first contraction 5 minutes after the administration. From the dose-dependent curve of AUC, the dose at which AUC before drug administration was increased 2 times (AUC200) was calculated to determine potency of contraction-enhancing effect of the test compounds for the muscle of urinary bladder. In addition, the potency of contraction-enhancing effect of […] for the muscle of bladder was determined in the same manner as mentioned above.

The test system of assay [3] is guinea pigs. The assay is described as follows: Effect on urination efficiency in guinea pigs, Experimental Example 3. The assay is classed as in vivo, Hartley male guinea pigs. The note with it: guinea pig; for Efficiency of Urination (%) Before adm.: before administration; for Efficiency of Urination (%) After adm. / Improvement of Efficiency (%): 10 minutes after administration. The text has this: Effect of the compounds of Reference Examples on urination efficiency was examined using Hartley male guinea pigs. Six to ten Hartley male guinea pigs weighing 346.5±3.5 g (SLC) were employed in each treated group. Guinea pigs were anesthetized with urethane, and held, and the bladder was exposed. Two polyethylene tubes (PE-50 and PE-100) were inserted into the bladder. One (PE-50) of the tubes was used in infusion of physiological saline, and the other (PE-100) was used for measurement of the internal pressure of the bladder. Saline was infused continuously at a flow rate of 0.3 mL/min. The infusion was stopped at the time when intermittent urination was confirmed at least 3 times, and the whole saline in bladder was removed. Again, infusion was started, and stopped at the time when a rise of the pressure in bladder was confirmed immediately before urination, and the time required for infusion and the weight of excreted urine were measured. Efficiency of urination was calculated from the following equation. Efficiency of urination (%)=100×Excreted volume (mL)/Infusion time (min)×0.3 (mL/min)
Measurement was made at least 2 times before administration of the test compound, and then the test compound was dissolved in distilled water and administered intravenously. […] Effect by administration of solvents was also confirmed.
The average measured value before administration of the test compounds was regarded as the value before administration, and applied to the paired-t test for a significant difference test with the value after the administration. (** p<0.01, * p<0.05)

The mark [4] stands for this setting: urethane-anesthetized guinea pig, dose at which AUC of bladder internal pressure before drug administration was increased 2 times.

T1 sequence (P22303 32-617 isoform P22303-2 limits assumed): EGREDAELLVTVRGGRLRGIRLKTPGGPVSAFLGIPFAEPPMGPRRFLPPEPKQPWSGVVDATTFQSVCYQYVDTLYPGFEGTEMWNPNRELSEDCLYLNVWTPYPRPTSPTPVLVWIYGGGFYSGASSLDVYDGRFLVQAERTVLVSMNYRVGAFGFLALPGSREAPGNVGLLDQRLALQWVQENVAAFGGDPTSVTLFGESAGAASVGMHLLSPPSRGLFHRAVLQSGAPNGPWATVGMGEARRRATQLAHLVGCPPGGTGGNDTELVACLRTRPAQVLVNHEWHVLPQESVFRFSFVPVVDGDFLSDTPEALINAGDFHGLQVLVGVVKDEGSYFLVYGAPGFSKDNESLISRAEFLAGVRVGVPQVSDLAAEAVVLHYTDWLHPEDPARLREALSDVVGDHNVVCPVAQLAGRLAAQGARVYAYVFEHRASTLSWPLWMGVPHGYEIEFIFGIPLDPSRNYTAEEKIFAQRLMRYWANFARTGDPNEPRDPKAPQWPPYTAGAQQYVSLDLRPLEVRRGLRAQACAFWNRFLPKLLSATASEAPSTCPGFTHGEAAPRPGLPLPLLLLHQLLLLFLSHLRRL

For `COc1cc2nc(N3CCN(C(=O)c4ccco4)CC3)nc(N)c2cc1OC` [Prazosin], the “Flow Rate (mL/sec) Ante-admn.” value in the assay on guinea pigs [1] (prazosin 0.1 mg/kg i.v. group, before administration (Table 8)) stood at 0.18 ± 0.03 mL/s. Further, in the assay with guinea pigs [1] (prazosin 0.1 mg/kg i.v., 10 minutes after administration (Table 8)), the “Flow Rate (mL/sec) Post-admn.” value stood at 0.17 ± 0.02 mL/s. In addition, in the assay with guinea pigs [1] (prazosin 0.1 mg/kg i.v., control DMSO (Table 8)), the “Improvement (%)” value is on record as 0.97 ± 10.32%.
The compound `N#Cc1cccc(CN2CCC(CCC(=O)c3cc4c5c(c3)CCN5C(=O)CC4)CC2)c1` [Reference Example 1] displayed an IC50 in assay [2] of 13.6 nM. Besides, the ED (2-fold bladder contraction AUC) in the assay on urinary bladder (setting [4]) was determined as 0.005 mg/kg.
Compound `O=C(CCC1CCN(Cc2ccccc2)CC1)c1cc2c3c(c1)CCN3C(=O)CC2` [Reference Example 17, 8-[3-[1-(phenylmethyl)-4-piperidinyl]-1-oxopropyl]-1,2,5,6-tetrahydro-4H-pyrrolo[3,2,1-ij]quinolin-4-one] had an IC50 in assay [2] of 7.8 nM. Further, the ED (2-fold bladder contraction AUC) with urinary bladder amounted to 0.0034 mg/kg.
Take `CCOc1ccccc1OCCN[C@H](C)Cc1ccc(OC)c(S(N)(=O)=O)c1` [Tamsulosin]: in the assay on guinea pigs [1] (tamsulosin 0.1 mg/kg i.v. group, before administration (Table 9)), the “Flow Rate (mL/sec) Ante-admn.” value stood at 0.16 ± 0.01 mL/s. In addition, the “Flow Rate (mL/sec) Post-admn.” value in the assay with guinea pigs [1] (tamsulosin 0.1 mg/kg i.v., 10 minutes after administration (Table 9)) stood at 0.14 ± 0.02 mL/s. The “Improvement (%)” value with guinea pigs [1] (tamsulosin 0.1 mg/kg i.v., control distilled water (Table 9)) is listed as −11.8 ± 4.8%.
As to `O=C(CCC1CCN(Cc2cccc(Cl)c2)CC1)c1cc2c3c(c1)CCN3C(=O)CC2` [compound 4], in assay [2], the midpoint of inhibition, the IC50, lay at 10.9 nM. Also, the ED (2-fold bladder contraction AUC) in the assay with urinary bladder (setting [4]) came out at 0.005 mg/kg.
In assay [2], `Cc1cccc(CN2CCC(CCC(=O)c3cc4c5c(c3)CCN5C(=O)CC4)CC2)c1` [compound 6] came in with an IC50 of 18.9 nM. Moreover, the ED (2-fold bladder contraction AUC) with urinary bladder (setting [4]) is 0.0049 mg/kg.
Taken in the same sequence, the figures for `Cc1ccccc1CN1CCC(CCC(=O)c2cc3c4c(c2)CCN4C(=O)CC3)CC1` [compound 7] were 22.1 nM and 0.0055 mg/kg.
Taken in the same sequence, the figures for `O=C(CCC1CCN(Cc2cccc([N+](=O)[O-])c2)CC1)c1cc2c3c(c1)CCN3C(=O)CC2` [compound 12] were 8.1 nM and 0.006 mg/kg.
Take `O=C(CCC1CCN(Cc2ccccc2O)CC1)c1cc2c3c(c1)CCN3C(=O)CC2` [compound 13]: inhibition in assay [2] was half-maximal at 5.2 nM (IC50). Moreover, the ED (2-fold bladder contraction AUC) in the assay on urinary bladder (setting [4]) worked out at 0.0013 mg/kg.
`O=C(CCC1CCN(Cc2ccccc2Cl)CC1)c1cc2c3c(c1)CCN3C(=O)CC2` [compound 14] showed an IC50 in assay [2] of 9.9 nM. In the assay on urinary bladder (setting [4]), the ED (2-fold bladder contraction AUC) came out at 0.0016 mg/kg.
In turn, `O=C(CCC1CCN(Cc2ccccc2)CC1)c1cc2c3c(c1)CC(=O)N3CCC2` [compound 18] registered an IC50 in assay [2] of 10.9 nM. Also, the ED (2-fold bladder contraction AUC) in the assay with urinary bladder worked out at 0.0051 mg/kg.
For the compound `Nc1c2c(nc3ccccc13)CCCC2` [compound 30], the entries for the “Efficiency of Urination (%) Before adm.” value in the assay with guinea pigs [3] (0.3 mg/kg i.v. group (Ref. Ex. 30)), with guinea pigs [3] (1.0 mg/kg i.v. group (Ref. Ex. 30)) and in the assay with guinea pigs [3] (3.0 mg/kg i.v. group (Ref. Ex. 30)) were 62.2 ± 5.1%, 62.8 ± 7.8% and 65.8 ± 8.9%, respectively. Further, the “Efficiency of Urination (%) After adm.” value turned out to be 74.5 ± 5.1% with guinea pigs [3] (0.3 mg/kg i.v.), 84.9 ± 4.8% in the assay on guinea pigs [3] (1.0 mg/kg i.v.) and 89.0 ± 2.7% in the assay with guinea pigs [3] (3.0 mg/kg i.v.). The “Improvement of Efficiency (%)” value is recorded as 22.0** % with guinea pigs [3] (0.3 mg/kg i.v.), 55.4* % in the assay with guinea pigs [3] (1.0 mg/kg i.v.) and 64.2* % in the assay on guinea pigs [3] (3.0 mg/kg i.v.).

The record behind these values is patent US8252814B2, “Agents and crystals for improving excretory potency of urinary bladder” (priority 1998, dated 2012).
